# From US7196083B2, “Heteropolycyclic inhibitors of protein kinases” (priority 2000, dated 2007)
# Like-named read-outs stand apart in the source and are kept apart here.
# Experiments:
# [1] = target: PKB, full-length recombinant bovine protein, alpha form (Bos taurus, UniProt Q01314); test: PKB inhibition in vitro enzyme assay (radioactive phosphate incorporation, scintillation counting); type: biochemical; settings: PKB in vitro enzyme assay, 15 min at room temperature
# [2] = tested on: A-549 (human lung carcinoma); test: [3H] thymidine uptake cell proliferation assay, A549; type: cell-based
# [3] = tested on: B16-F10 (murine melanoma); test: [3H] thymidine uptake cell proliferation assay, B16F10; type: cell-based; settings: Mus musculus, read-out: Cell Proliferation Effects (IC50 (nM))
# DU-145 (human carcinoma) = test: [3H] thymidine uptake cell proliferation assay, DU145; type: cell-based; settings: read-out: Cell Proliferation Effects (IC50 (nM))
# [4] = tested on: HT-29 human colon carcinoma; test: [3H] thymidine uptake cell proliferation assay, HT29; type: cell-based; settings: read-out: Cell Proliferation Effects (IC50 (nM))
# [5] = tested on: PC3 (human prostate carcinoma); test: [3H] thymidine uptake cell proliferation assay, PC3; type: cell-based; settings: PC-3, read-out: Cell Proliferation Effects (IC50 (nM))
# [6] = tested on: NIH-3T3 (murine embryonic fibroblasts); test: [3H] thymidine uptake cell proliferation assay, NIH3T3; type: cell-based; settings: Mus musculus; NIH3T3, non-tumorigenic cell line; read-out: Cell Proliferation Effects (IC50 (nM))
# [7] = tested on: human breast carcinoma MDA-MB-435 cell line; test: [3H] thymidine uptake cell proliferation assay, MDA435; type: cell-based; settings: read-out: Cell Proliferation Effects (IC50 (nM))
# Protocol: The human breast carcinoma MDA-MB-435 cell line was obtained from MD Anderson Cancer Center, and cultured in alpha-MEM media supplemented with 10% Fetal Bovine Serum. Cells were maintained in T150 tissue culture flasks, and grown at 37° C. in a humidified 5% CO2 incubator. All cells were passaged regularly using 0.25% Trypsin-EDTA in order to maintain cells at exponential growth for various experiments. LS 180 cells were passaged without trypsin and were physically scraped off the culture flasks. In vitro [^3H] thymidine uptake assay. Proliferation can be measured by quantifying the amount of [^3H] thymidine uptake into cells using a β-counter, and therefore is a well-established diagnostic tool to measure DNA synthesis within the cells. […] The cells were allowed to adhere to the plates via incubation at 37° C. in 5% CO2 for 12–14 hours. […] Then, 10 μL of the compound was added to the pre-existing 90 μL per well, and incubated further at 37° C. in 5% CO2 for 20 hours. To measure thymidine incorporation, cells were fixed onto the culture wells by slowly adding ¼^th volume of cold 50% TCA into each well (25 μL to each well) and incubated for 1–2 hours at 4° C. […] Then, 100 μL of scintillation fluid was added to each well and the activity counted using a Wallac Microbeta Counter.
# physchem = test: physchem
# Excerpt: Solubility of KP-23172 was studied in various percent solutions of hydroxypropyl-B-cyclodextrin in water.
# PKB = test: Time course kinase assay in U87 cells, immunoprecipitated with PKB/PH specific antibody; type: cell-based, human; settings: for PKB activity, % of control: 5 uM, background about 15% of control
# Protocol: The compound was added to culture at mid-logarithmic growth which were harvested at specific time intervals. In preparation for this assay, each cell line was seeded at a density of 3 times 1,000,000 cells per plate onto 150 mm culture dishes and allowed to establish o/n at 37 deg C. A confluency of 50–60% was obtained to ensure maximal drug penetration into each cell. Once the cells were adherent to the culture plates, there were treated with PKB inhibitor KP-23172 for a final conc. of 5 uM. Each culture plate was lysed on ice at specific time intervals using 1% NP-40 lysis buffer containing various protease inhibitors; 10 ug/uL aprotinin, 10 ug/ul leupeptin, 1 ug/ul pepstatin, 1 M beta-glycerophosphate and 100 mM PMSF. The resulting lysates were centrifuged at 15K×g at 4 deg C. for 5 min and then assayed for its protein conc. using Bradford's Reagent and absorbance measurements at 595 nm. […] Each sample was then centrifuged at 14K×g for 2 min at 4 deg C. and the s/n aspirated off. Beads were thoroughly washed twice with lysis buffer, then with Assay Dilution Buffer. When any unbound proteins have been completely washed away from the beads, 30 uL of ADB was added along with 10 uL of PDB substrate. Tubes were immediately incubated in 30 deg. C. water baths after the kinase reaction was allowed to commence with the addition of 10 uL assay (gamma32P)ATP. […] All vials were counted for one minute in the scintillation counter. To determine the potency of KP-23172, U87 cells were plated onto 150 mm petri plates and treated with 5 uM KP-23172. After incubation at 37 deg C. under 5% CO2 for the specified time, cells were lysed and the supernatant extracted for kinase analysis. All samples were immunoprecipitated with PKB/PH specific antibody and kinase activity. measured using a short amino acid peptide as the substrate. […] Background was about 15% of control.
# PKB gamma = target: T1, PKB gamma (Homo sapiens, UniProt Q9Y243); test: Kinase assay in U87 cells using anti PKB gamma antibody; type: cell-based; settings: U-87 MG, 1 h, after 60 min, read-out: PKB gamma isoform activity, reduction of activity to
# T1 construct: endogenous in cells; host or cells: U87 cells
# Protocol: In preparation for this assay, each cell line was seeded at a density of 3 times 1,000,000 cells per plate onto 150 mm culture dishes and allowed to establish o/n at 37 deg C. A confluency of 50–60% was obtained to ensure maximal drug penetration into each cell. Once the cells were adherent to the culture plates, there were treated with PKB inhibitor KP-23172 for a final conc. of 5 uM. Each culture plate was lysed on ice at specific time intervals using 1% NP-40 lysis buffer containing various protease inhibitors; 10 ug/uL aprotinin, 10 ug/ul leupeptin, 1 ug/ul pepstatin, 1 M beta-glycerophosphate and 100 mM PMSF. The resulting lysates were centrifuged at 15K×g at 4 deg C. for 5 min and then assayed for its protein conc. using Bradford's Reagent and absorbance measurements at 595 nm. Equal amounts of protein were transferred to a new centrifuge tube and treated with anti-PKB-PH antibody (Kinetek #XXP-021), anti-PKBalpha antibody (Signal Transduction #67220), or anti-PKB gamma antibody (UBI 306-607) and incubated end over end at 4 deg C. […] All vials were counted for one minute in the scintillation counter.
# A kinase assay in cells was also performed using anti PKB alpha and gamma antibodies in order to determine any inhibition of the isoforms by KP-23172. U87 cells were treated with 5 uM compound, lysed, and the resulting supernatant was analyzed for any changed in PKB activity. […]
# T1 sequence (Q9Y243 whole entry, canonical isoform): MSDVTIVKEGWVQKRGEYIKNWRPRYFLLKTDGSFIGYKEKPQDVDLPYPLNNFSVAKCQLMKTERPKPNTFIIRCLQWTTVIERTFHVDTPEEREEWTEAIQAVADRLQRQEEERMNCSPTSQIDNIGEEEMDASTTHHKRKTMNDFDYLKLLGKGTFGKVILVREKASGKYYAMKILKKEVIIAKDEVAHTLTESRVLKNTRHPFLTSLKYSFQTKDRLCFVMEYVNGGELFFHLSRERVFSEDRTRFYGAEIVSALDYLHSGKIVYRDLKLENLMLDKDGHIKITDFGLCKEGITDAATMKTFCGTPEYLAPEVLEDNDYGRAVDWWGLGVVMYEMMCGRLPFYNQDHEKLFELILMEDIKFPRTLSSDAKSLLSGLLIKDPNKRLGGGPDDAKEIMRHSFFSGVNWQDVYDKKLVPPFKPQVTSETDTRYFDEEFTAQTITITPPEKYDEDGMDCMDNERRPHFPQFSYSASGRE
# Sequence of PKB, full-length recombinant bovine protein, alpha form (Q01314 whole entry): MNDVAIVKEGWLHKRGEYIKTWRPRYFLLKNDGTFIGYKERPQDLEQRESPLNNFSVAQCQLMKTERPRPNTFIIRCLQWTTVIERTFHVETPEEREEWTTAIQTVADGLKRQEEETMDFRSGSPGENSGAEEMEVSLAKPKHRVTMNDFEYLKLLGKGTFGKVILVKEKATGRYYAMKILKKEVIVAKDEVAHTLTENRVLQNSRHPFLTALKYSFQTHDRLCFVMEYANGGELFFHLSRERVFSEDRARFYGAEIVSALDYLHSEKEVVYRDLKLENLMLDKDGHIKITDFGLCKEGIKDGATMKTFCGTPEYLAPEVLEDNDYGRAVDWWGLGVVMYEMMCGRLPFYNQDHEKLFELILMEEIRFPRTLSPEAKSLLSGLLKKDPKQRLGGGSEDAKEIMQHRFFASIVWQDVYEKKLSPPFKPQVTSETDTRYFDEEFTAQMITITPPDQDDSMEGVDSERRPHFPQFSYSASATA
compound,measurement,setting,value
O=C1c2ccccc2-c2nc3nnnn3nc21 [KP-23172],IC50,[1],15000 nM
same,IC50,"[2]; A459 cells, read-out: Cell Proliferation in A459 IC50 in nm",80 nM
same,IC50,"[2]; A549, read-out: Cell Proliferation Effects (IC50 (nM))",80 nM
same,IC50,[3],400 nM
same,IC50,DU-145 (human carcinoma),50 nM
same,IC50,[4],200 nM
same,IC50,[5],250 nM
same,IC50,[6],150 nM
same,IC50,[7],60 nM
same,1:1 binding constant for the cyclodextrin inclusion complex,physchem,474
same,solubility,physchem; aqueous with cosolvent or surfactant or cyclodextrin,728 µg/mL
same,solubility,physchem; water,77 µg/mL
same,"PKB activity, % of control",PKB; after 15 min,80.4%
same,"PKB activity, % of control",PKB; after 30 min,23.8%
same,"PKB activity, % of control",PKB; after 60 min,38.5%
same,levels of the kinase in time course kinase assay,"PKB; 5 iM, after 60 minutes",significantly decreased levels of the kinase
same,activity at 5 µM,PKB gamma,18.3%
